Non-standard residues stand in square brackets, D forms with d. Residues, ends and D or L forms follow the SMILES beside them. d(αMeW) = C[C@@](N)(Cc1c[nH]c2ccccc12)C(=O)O; NMeH = CN[C@@H](Cc1c[nH]cn1)C(=O)O; NMeK = CN[C@@H](CCCCN)C(=O)O; dNle = CCCC[C@@H](N)C(=O)O; Nle = CCCC[C@H](N)C(=O)O
The molecules below were run against human MC4R (Homo sapiens, UniProt P32245) (assay: Intracellular cAMP levels in live cells, MC3R selectivity relative to MC4R). Settings: cAMP assays in human MC3R and human MC4R stable cell lines.
Sequence of human MC4R (P32245 whole entry): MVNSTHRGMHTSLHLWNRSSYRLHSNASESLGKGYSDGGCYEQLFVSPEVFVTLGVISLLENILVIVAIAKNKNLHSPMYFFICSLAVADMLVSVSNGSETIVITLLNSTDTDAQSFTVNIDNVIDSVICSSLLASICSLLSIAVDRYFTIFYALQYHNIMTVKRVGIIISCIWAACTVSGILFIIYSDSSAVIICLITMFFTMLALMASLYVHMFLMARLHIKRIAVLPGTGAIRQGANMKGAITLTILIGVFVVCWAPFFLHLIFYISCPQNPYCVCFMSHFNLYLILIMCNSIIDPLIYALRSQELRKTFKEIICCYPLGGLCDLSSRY
Format: cell-based
Protocol: The stable cell lines were grown and maintained in selection media consisting of Dulbecco's modified Eagle media (DMEM) with 4.5 g/l D-glucose, and 4 mM L-glutamine (Thermo Fisher Scientific, Waltham, MA), supplemented with 10% fetal bovine serum, 100 units/ml penicillin, 100 μg/ml streptomycin, 2.5 μg/ml amphotericin B, 200 μg/ml hygromycin B (for positive selection of the GScAMP22f luciferase reporter), and Geneticin™ (G418) 700 μg/ml (for MC3R or MC4R selection). Actual serum concentration during the assay is estimated to be about 1%. Cell line identity is routinely verified by qPCR and MC3R- and MC4R-specific oligonucleotides.
The assay for the determination of the CAMP response in live cells was described previously. […] Ccells were seeded at a density of 20,000 cells per well using 384-well poly-D lysine-coated, clear bottom, and black-wall assay plates (Corning Inc. Corning, NJ). Cells were allowed to attach to the plates for 18 to 24 h after which growth media was removed and 20 ul of 4% D-luciferin (Promega) in CO2 independent, serum-free medium (Thermo Fisher Scientific) was added to each well. […] Intracellular cAMP levels were measured using an FDSS 7000EX Functional Drug Screening System (Hamamatsu Photonics, Hamamatsu, Japan) in the Center for Chemical Genomics at the Life Sciences Institute. This instrument allowed the in-line addition of test-peptides and receptor agonists while simultaneously acquiring the luminescence signal from live cells. […] A submaximal forskolin (20 μM) concentration was also included to serve as a normalization reference to account for cell number variations and differences in assay transducer efficiency between cell lines.
With this set up it was possible to evaluate the direct agonist effect of the test-peptides on the MC3R and MC4R cell lines during measurement window 1, while the antagonist profile in the presence of EC90 α-MSH was determined on measurement window 2. […] EC50 or IC50 potency values were determined by non-linear regression by fitting the data to a sigmoid four-parameter variable slope model using the GraphPad Prism version 8.4 software package (San Diego CA).
For CCCC[C@H](NC(=O)[C@@H](NC(=O)[C@@H](N)Cc1ccc(O)cc1)C(C)C)C(=O)N[C@H](C)C(=O)N[C@@H](Cc1c[nH]cn1)C(=O)N[C@H](Cc1ccccc1)C(=O)N[C@@H](CCCNC(=N)N)C(=O)N[C@H](Cc1c[nH]c2ccccc12)C(=O)N[C@@H](CC(=O)O)C(=O)N[C@@H](CCCNC(=N)N)C(=O)N[C@@H](Cc1ccccc1)C(=O)NCC(=O)O [CTX-1104, Tyr-Val-Nle-D-Ala-His-D-Phe-Arg-D-Trp-Asp-Arg-Phe-Gly] (H-YV[Nle][dA]H[dF]R[dW]DRFG-OH), the “MC3R selectivity (relative to MC4R)” value was 27.
In the case of CCCC[C@H](NC(C)=O)C(=O)N[C@H](C)C(=O)N(C)[C@@H](CCCCN)C(=O)N[C@@H](Cc1ccccc1)C(=O)N[C@@H](CCCNC(=N)N)C(=O)N[C@H](Cc1c[nH]c2ccccc12)C(=O)N[C@@H](CC(=O)O)C(=O)N[C@@H](CCCNC(=N)N)C(=O)N[C@@H](Cc1ccccc1)C(=O)NCC(=O)O [CTX-1189, Nle-D-Ala-NMe-Lys-Phe-Arg-D-Trp-Asp-Arg-Phe-Gly] (Ac-[Nle][dA][NMeK]FR[dW]DRFG-OH), the “MC3R selectivity (relative to MC4R)” value is reported as 1.
For CCCC[C@H](NC(C)=O)C(=O)N[C@H](C)C(=O)N(C)[C@@H](Cc1c[nH]cn1)C(=O)N[C@@H](Cc1ccccc1)C(=O)N[C@@H](CCCNC(=N)N)C(=O)N[C@H](Cc1c[nH]c2ccccc12)C(=O)N[C@@H](CC(=O)O)C(=O)N[C@@H](CCCNC(=N)N)C(=O)N[C@@H](Cc1ccccc1)C(=O)NCC(=O)O [CTX-1186, Nle-D-Ala-NMe-His-Phe-Arg-D-Trp-Asp-Arg-Phe-Gly] (Ac-[Nle][dA][NMeH]FR[dW]DRFG-OH), the “MC3R selectivity (relative to MC4R)” value was 1884.
With CCCC[C@H](NC(C)=O)C(=O)N[C@H](C)C(=O)N[C@@H](Cc1c[nH]cn1)C(=O)N[C@@H](Cc1ccccc1)C(=O)N[C@@H](CCCNC(=N)N)C(=O)N[C@H](Cc1c[nH]c2ccccc12)C(=O)N[C@@H](CC(=O)O)C(=O)N[C@@H](CCCNC(=N)N)C(=O)N[C@@H](Cc1ccccc1)C(=O)N[C@H](C(=O)O)C(C)C [CTX-1538, Nle-D-Ala-His-Phe-Arg-D-Trp-Asp-Arg-Phe-Val] (Ac-[Nle][dA]HFR[dW]DRFV-OH) the “MC3R selectivity (relative to MC4R)” value was 1,276.
With CCCC[C@H](NC(C)=O)C(=O)N1CCC[C@@H]1C(=O)N[C@@H](Cc1c[nH]cn1)C(=O)N[C@@H](Cc1ccccc1)C(=O)N[C@@H](CCCNC(=N)N)C(=O)N[C@H](Cc1c[nH]c2ccccc12)C(=O)N[C@@H](CC(=O)O)C(=O)N[C@@H](CCCNC(=N)N)C(=O)N[C@@H](Cc1ccccc1)C(=O)NCC(=O)O [CTX-1184, Nle-D-Pro-His-Phe-Arg-D-Trp-Asp-Arg-Phe-Gly] (Ac-[Nle][dP]HFR[dW]DRFG-OH) the “MC3R selectivity (relative to MC4R)” value was 28.
For CCCC[C@H](NC(C)=O)C(=O)N[C@H](CCCC)C(=O)N[C@@H](Cc1c[nH]cn1)C(=O)N[C@@H](Cc1ccccc1)C(=O)N[C@@H](CCCNC(=N)N)C(=O)N[C@H](Cc1c[nH]c2ccccc12)C(=O)N[C@@H](CC(=O)O)C(=O)N[C@@H](CCCNC(=N)N)C(=O)N[C@@H](Cc1ccccc1)C(=O)NCC(=O)O [CTX-1182, Nle-D-Nle-His-Phe-Arg-D-Trp-Asp-Arg-Phe-Gly] (Ac-[Nle][dNle]HFR[dW]DRFG-OH), the “MC3R selectivity (relative to MC4R)” value was 1406.
In the case of CCCC[C@H](NC(C)=O)C(=O)N[C@H](C)C(=O)N[C@@H](Cc1c[nH]cn1)C(=O)N[C@@H](Cc1ccccc1)C(=O)N[C@@H](CCCNC(=N)N)C(=O)N[C@](C)(Cc1c[nH]c2ccccc12)C(=O)N[C@@H](CC(=O)O)C(=O)N[C@@H](CCCNC(=N)N)C(=O)N[C@@H](Cc1ccccc1)C(=O)NCC(=O)O [CTX-1510, Nle-D-Ala-His-Phe-Arg-aMe-D-Trp-Asp-Arg-Phe-Gly] (Ac-[Nle][dA]HFR[d(αMeW)]DRFG-OH), the “MC3R selectivity (relative to MC4R)” value is reported as 23.
With CCCC[C@H](NC(=O)[C@@H](NC(=O)[C@@H](N)Cc1ccc(O)cc1)C(C)C)C(=O)N[C@@H](C)C(=O)N[C@@H](Cc1c[nH]cn1)C(=O)N[C@@H](Cc1ccccc1)C(=O)N[C@@H](CCCNC(=N)N)C(=O)N[C@H](Cc1c[nH]c2ccccc12)C(=O)N[C@@H](CC(=O)O)C(=O)N[C@@H](CCCNC(=N)N)C(=O)N[C@@H](Cc1ccccc1)C(=O)NCC(=O)O [CTX-1133, Tyr-Val-Nle-Ala-His-Phe-Arg-D-Trp-Asp-Arg-Phe-Gly] (H-YV[Nle]AHFR[dW]DRFG-OH) the “MC3R selectivity (relative to MC4R)” value was 7.4.
CCCC[C@H](NC(C)=O)C(=O)N[C@H](C)C(=O)N[C@@H](Cc1c[nH]cn1)C(=O)N[C@@H](Cc1ccccc1)C(=O)N[C@@H](CCCNC(=N)N)C(=O)N[C@H](Cc1c[nH]c2ccccc12)C(=O)N[C@@H](CC(=O)O)C(=O)N[C@@H](CCCNC(=N)N)C(=O)N[C@@H](C)C(=O)NCC(=O)O [CTX-1537, Nle-D-Ala-His-Phe-Arg-D-Trp-Asp-Arg-Ala-Gly] (Ac-[Nle][dA]HFR[dW]DRAG-OH) was tested, and the “MC3R selectivity (relative to MC4R)” value was 278.
For CCCC[C@H](NC(=O)[C@@H](NC(=O)[C@@H](N)Cc1ccc(O)cc1)C(C)C)C(=O)NCC(=O)N[C@@H](CCCNC(=N)N)C(=O)N[C@@H](Cc1ccccc1)C(=O)N[C@@H](CCCNC(=N)N)C(=O)N[C@H](Cc1c[nH]c2ccccc12)C(=O)N[C@@H](CC(=O)O)C(=O)N[C@@H](CCCNC(=N)N)C(=O)N[C@@H](Cc1ccccc1)C(=O)NCC(=O)O [CTX-1549, Tyr-Val-Nle-Gly-Arg-Phe-Arg-D-Trp-Asp-Arg-Phe-Gly] (H-YV[Nle]GRFR[dW]DRFG-OH), the “MC3R selectivity (relative to MC4R)” value was 102.
With CCCC[C@H](NC(=O)[C@@H](NC(=O)CNC(=O)COCCOCCNC(=O)CNC(=O)CCc1ccc(I)cc1)C(C)C)C(=O)N[C@H](C)C(=O)N[C@@H](Cc1c[nH]cn1)C(=O)N[C@@H](Cc1ccccc1)C(=O)N[C@@H](CCCNC(=N)N)C(=O)N[C@H](Cc1c[nH]c2ccccc12)C(=O)N[C@@H](CC(=O)O)C(=O)N[C@@H](CCCNC(=N)N)C(=O)N[C@@H](Cc1ccccc1)C(=O)NCC(=O)O [CTX-1150, Gly-Val-Nle-D-Ala-His-Phe-Arg-D-Trp-Asp-Arg-Phe-Gly] the “MC3R selectivity (relative to MC4R)” value was 577.
In the case of CCCC[C@H](NC(=O)[C@@H](NC(=O)[C@@H](N)Cc1ccc(O)cc1)C(C)C)C(=O)NCC(=O)N[C@@H](Cc1c[nH]cn1)C(=O)N[C@H](Cc1ccccc1)C(=O)N[C@@H](CCCNC(=N)N)C(=O)N[C@H](Cc1c[nH]c2ccccc12)C(=O)N[C@@H](CC(=O)O)C(N)=O [CTX-1107, Tyr-Val-Nle-Gly-His-D-Phe-Arg-D-Trp-Asp] (H-YV[Nle]GH[dF]R[dW]D-NH2), the “MC3R selectivity (relative to MC4R)” value is reported as 2.4.
CCCC[C@H](NC(C)=O)C(=O)N[C@H](C)C(=O)N[C@@H](Cc1c[nH]cn1)C(=O)N[C@@H](Cc1ccccc1)C(=O)N[C@@H](CCCNC(=N)N)C(=O)N[C@H](Cc1c[nH]c2ccccc12)C(=O)NCC(N)=O [CTX-1540, Nle-D-Ala-His-Phe-Arg-D-Trp-Gly] (Ac-[Nle][dA]HFR[dW]G-NH2) was tested, and the “MC3R selectivity (relative to MC4R)” value was 11.
With CCCC[C@H](NC(C)=O)C(=O)N[C@H](C)C(=O)N[C@@H](Cc1c[nH]cn1)C(=O)N[C@@H](Cc1ccccc1)C(=O)N[C@@H](CCCNC(=N)N)C(=O)N[C@H](Cc1c[nH]c2ccccc12)C(N)=O [CTX-1539, Nle-D-Ala-His-Phe-Arg-D-Trp] (Ac-[Nle][dA]HFR[dW]-NH2) the “MC3R selectivity (relative to MC4R)” value was 16.
In the case of CCCC[C@H](NC(=O)[C@@H](NC(=O)[C@H](N)Cc1ccc(O)cc1)C(C)C)C(=O)N[C@H](C)C(=O)N[C@@H](Cc1c[nH]cn1)C(=O)N[C@@H](Cc1ccccc1)C(=O)N[C@@H](CCCNC(=N)N)C(=O)N[C@H](Cc1c[nH]c2ccccc12)C(=O)N[C@@H](CC(=O)O)C(N)=O [CTX-1142, D-Tyr-Val-Nle-D-Ala-His-Phe-Arg-D-Trp-Asp] (H-[dY]V[Nle][dA]HFR[dW]D-NH2), the “MC3R selectivity (relative to MC4R)” value is reported as 54.
